Here are results for one compound from patent US20050171116A1, “Enhancing the efficacy of tubercular drugs” (priority 2004, published 2005).

For experiment [1], the system named is sensitive strains of Mycobacterium Tuberculosis bacilli (MTB). As to the kind of experiment: Antibacterial efficacy in LJ medium, in vitro culture. The class given is cell-based.
The next experiment deals with Escherichia coli. As to the kind of experiment: Antibacterial activity in broth, culture growth after 24 hrs. The class given is cell-based.
A further experiment has as its system Pseudomonas. Described as above. The class given is cell-based.
The subject of another experiment is Staphylococci. The experiment is described as above. The class given is cell-based.
The next experiment relates to AFB. Kind of experiment: Sputum AFB test (Ziehl-Neelson stain) in pulmonary tuberculosis patients. The class given is in vivo, human. The method, then:
Fifty four patients suffering from pulmonary tuberculosis were included in this study. Thirty patients were treated with four anti-tubercular drugs only. Twenty-four patients were treated with four anti-tubercular drugs and antioxidant drugs concomitantly.
Four antitubercular drugs were given by oral route to all 54 patients in doses and frequency as shown below for a period of 60 days. The dosage regime for the anti-microbial drugs is known in the art as “2EHRZ.” It is an oral daily capsule of rifampicin, a tablet of isoniazid, a tablet of Pyrizinamide, and a tablet of ethambutal.
Out of the total test population of fifty-four patients, twenty-four patients received, in addition to the above 2EHRZ regime, Factor Alpha tx for 60 days, administered daily, orally.
In both of the two groups, three sputum samples for each patient were collected and were analyzed for the presence of AFB after 15 days, after 30 days and after sixty days. Analysis was by the Ziehl-Neelson (hot) stain method. The reports were documented as positive for presence of bacilli & negative for absence of bacilli.
The first group (the control group) received Rifampicin, Isoniazid, Ethambutol and Pyrazinamide in daily oral doses mentioned above, on Out Patient Department (OPD) basis for 60 days. […]

Consider `Cc1c(C)c2c(c(C)c1O)CC[C@@](C)(CCC[C@H](C)CCC[C@H](C)CCCC(C)C)O2` [Factor Alpha tx, α-tocopherol], for which the antibacterial efficacy result in experiment [1] was “effective”. In addition, the antibacterial activity entry in the experiment with Escherichia coli, in the experiment on Pseudomonas and with Staphylococci was “has antibacterial activity” throughout. In addition, in the experiment with AFB, the “effect on sputum negativity of concurrent administration with routine anti tubercular agents” value was “synergistic effects in augmenting sputum negativity”.
